The record followed here is US20240024350A1, “ANTI-CANCER COMPOSITION CONTAINING AURANOFIN AND MERCAPTO COMPOUND AND USE THEREOF” (SUN YAT-SEN UNIVERSITY, priority 2020, published 2024).

The test system of one test is TrxR. Nature of the test: Intracellular TrxR activity in HepG2 cells (DTNB reduction). It is filed as cell-based, human. Conditions: mercapto compound alone 200 μM, 30% FBS. On the procedure:
HepG2 cells were used as a test subject.
The cells were inoculated into a 6-well plate at 2×10^5 cell/well and incubated for 24 h.
After the incubation, the cell culture medium was replaced with 30% FBS to simulate the high concentration mercapto environment under the normal physiological condition, and used as a control (without adding any reagents). The experimental group was added with 0.5 μM of auranofin for incubation at 37° C. for 30 min, and then added with the mercapto compound (DEDT, β-mercaptoethanol or mercaptoethylamine) for incubation for 30 min (final concentration of DMSO in the system was ≤1%). The incubated cells were washed for 3 times with PBS, added with 100 μL of icy lysis buffer (containing 50 mM of phosphate buffer with pH 7.4, 1 mM EDTA, and 0.10% Triton-X 100), and then lysed on ice for 5 min to collect the cell lysate.
100 μL of buffer (containing 50 mM of potassium phosphate with pH 7.4, 1 mM EDTA, and 0.2 mM NADPH) was added to the collected cell lysate (10 μg protein), 5,5′-dithiobis (2-nitrobenzoic acid) (DTNB, with a final concentration of 3 mM) was added to initiate a reaction, and the activity of TrxR was obtained on the basis of the increased OD value in 10 minutes (OD detection wavelength was 410 nm). Auranofin alone was the positive control sample, and the blank group was the negative control.

The test system of test [1] is HCT116 human colon cancer cells. Description: MTT colorimetric proliferation / cell survival assay, HCT116. As to conditions: for Cell survival rate (%): compound alone, others not given; for Cell survival rate (%) / Cell survival rate after addition of 10 μM auranofin (%): with 30% FBS, 50 μM for TGTA, β-mercaptoethanol, mercaptoethylamine, DEDT; for Cell survival rate after addition of 10 μM auranofin (%): compound plus 10 μM auranofin, listed as Auranofin = auranofin alone.

The test system of a further test is PCGR lung cancer cells. Nature of the test: MTT cell survival assay, PCGR. It is filed as cell-based. As to conditions: TGTA 50 μM. How it is done:
(§1) A flask with the cancer cells required for the experiment, with an original culture solution discarded, was washed for three times with 2 mL of PBS, 1 mL of pancreatin was added for digestion for 30 s, and 2 mL of a medium was added to terminate the digestion. The cells were transferred to a centrifuge tube and centrifuged at 1000 rpm for 3 min, the supernatant was discarded, and 2 mL of a medium was added and blew 10 times to be mixed uniformly. 10 μL of a cell suspension was taken for cell counting, and spread on a 96-well plate, with 5000 cells per well and 3 duplications for each compound, and then the number of cells and cell wells was calculated. The amount of required cell suspension and the number of cells for medium dilution were calculated by cell counting. 100 μL of medium was plated with 5000 cells per well, pipetted and mixed uniformly, and the cells were inoculated using a volley, placed in an incubator for culture, and marked. […]
(§2) According to the results of Table 1-2, the killing effect of auranofin in combination with various compounds (with 30% FBS) on HCT116 human colon cancer cells and the killing effect of the auranofin-TGTA (50 μM) in combination with other cancer cells (lung cancer, colon cancer, breast cancer, liver cancer, cervical cancer and gastric cancer cells) were further detected by using the same method as the above.
For orientation: Tetrazolium dyes change colour on reduction, which living cells bring about.

The test system of test [2] is PC9 human lung cancer cells. Description: MTT cell survival assay, PC9. It is filed as cell-based. Conditions: TGTA 50 μM. How it is done: as §1, §2
Test [3] deals with MCF-7 human breast cell cancer cells. Nature of the test: MTT colorimetric proliferation / cell survival assay, MCF-7. It is filed as cell-based. As to conditions: breast cancer; TGTA 50 μM. How it is done: (§3) A flask with the cancer cells required for the experiment, with an original culture solution discarded, was washed for three times with 2 mL of PBS, 1 mL of pancreatin was added for digestion for 30 s, and 2 mL of a medium was added to terminate the digestion. The cells were transferred to a centrifuge tube and centrifuged at 1000 rpm for 3 min, the supernatant was discarded, and 2 mL of a medium was added and blew 10 times to be mixed uniformly. 10 μL of a cell suspension was taken for cell counting, and spread on a 96-well plate, with 5000 cells per well and 3 duplications for each compound, and then the number of cells and cell wells was calculated. The amount of required cell suspension and the number of cells for medium dilution were calculated by cell counting. 100 μL of medium was plated with 5000 cells per well, pipetted and mixed uniformly, and the cells were inoculated using a volley, placed in an incubator for culture, and marked.
(§4) (2) The cells cultured in step (1) was taken, and discarded with the original medium. Auranofin mother liquor was diluted to a diluent with final concentrations of 0, 0.78125, 1.5625, 3.125, 6.25, 12.5, 25, 50 and 100 μM, and mixed uniformly. A volley (using 3 wells) was used to draw 100 μL of dilution per well, a 96-well plate was tilted, diluents with each concentration were added in sequence to the corresponding 3 marked wells carefully to prevent poking the cells, blown and sucked about 3 times to be mixed uniformly, marked, shaken for 3 times, and put into a CO2 incubator for culture. The above steps were repeated for each auranofin diluent.
(§5) After auranofin was added for culture for 1 hour, the mother liquor of the mercapto compound was diluted into […] and mixed uniformly. A volley (using 3 wells) was used to suck 20 μL of diluent per well, the 96-well plate was tilted, the diluents of different mercapto compounds were added in sequence to the corresponding 3 marked wells carefully to prevent poking the cells, blown and sucked about 3 times to be mixed uniformly, and put back to the incubator to continue culture.
(§6) After different mercapto compounds were added to cells for 24 h, 20 μL of MTT (with a concentration of 5 mg/mL in PBS) per well was added to the 96-well plate by a volley; and incubation was carried out at 37° C. for 4 h. At the end of incubation, the MTT mixture was sucked out, and DMSO was added at 130 μL/well using a volley.
as §2

The test system of test [4] is MGC803 human gastric cancer cells. Nature of the test: MTT cell survival assay, MGC803. Conditions: TGTA 50 μM. It is filed as cell-based. On the procedure:
as §1, §2

In test [5] the test system is Hela human cervical cancer cells. Nature of the test: MTT cell survival assay, Hela. As to conditions: TGTA 50 μM. It counts as cell-based. On the procedure: as §1, §2
The subject of test [6] is HepG-2 human liver cancer cells. Nature of the test: MTT colorimetric proliferation / cell survival assay, HepG-2. It counts as cell-based. Conditions: Liver cancer; TGTA 50 μM. On the procedure:
as §3, §4, §5, §6, §2

Test [7] has as its system A549 human lung cancer cells. Nature of the test: MTT colorimetric proliferation / cell survival assay, A549. It counts as cell-based. As to conditions: Lung cancer; TGTA 50 μM. On the procedure: as §3, §4, §5, §6, §2

For the compound `OCCS` [β-mercaptoethanol], in the test with TrxR, the “Activity of TrxR” value was 127.3%. Moreover, in test [1], the “Cell survival rate (%)” value was 96 ± 15% and the “Cell survival rate after addition of 10 μM auranofin (%)” value (shortened to “Cell survival rate after addition … (%)”) was 55 ± 4%.

For the compound `[Na+].[Na+].[Na+].[O-]P([O-])([O-])=S` [Sodium thiophosphate hydrate], in test [1], the “Cell survival rate (%)” value is reported as 99 ± 8% and the “Cell survival rate after addition … (%)” value is recorded as 79 ± 4%.

Take `CC(=O)OC[C@H]1O[C@@H](S)[C@H](OC(C)=O)[C@@H](OC(C)=O)[C@@H]1OC(C)=O` [TGTA, 1-thio-β-D-glucose tetraacetate]: the “Cell survival rate (%) PCGR” value in the test with PCGR lung cancer cells was 101 ± 3%. For the same compound, the “Cell survival rate (%) PC9” value in [2] amounted to 104 ± 2%. Further, the “Cell survival rate (%) MCF-7” value in test [3] is 99 ± 3%. For the same compound, the “Cell survival rate (%) MGC803” value in test [4] is reported as 104 ± 9%. In test [5], the “Cell survival rate (%) Hela” value was 87 ± 6%. Besides, the “Cell survival rate (%) HepG2” value in [6] is given as 104 ± 4%. Moreover, in test [7], the “Cell survival rate (%) A549” value worked out at 104 ± 6%. Also, the “Cell survival rate (%) HCT116” value in test [1] (colon cancer, TGTA 50 μM) is reported as 97 ± 5%. Also, in [1], the “Cell survival rate (%)” value came to 97 ± 5% and the “Cell survival rate after addition … (%)” value came to 18 ± 2%.

Take `O=S([O-])([O-])=S.[Na+].[Na+]` [sodium thiosulfate]: in [1], the “Cell survival rate (%)” value is on record as 105 ± 5% and the “Cell survival rate after addition … (%)” value is given as 84 ± 8%.

Turning to `Cn1cc[nH]c1=S` [Methimazole], in test [1], the “Cell survival rate (%)” value is recorded as 98 ± 9% and the “Cell survival rate after addition … (%)” value was determined as 87 ± 5%.

In the case of `CCCc1cc(=O)[nH]c(=S)[nH]1` [Propylthiouracil], in [1], the “Cell survival rate (%)” value is reported as 101 ± 6% and the “Cell survival rate after addition … (%)” value worked out at 76 ± 9%.

Turning to `NCCS` [mercaptoethylamine, mercaptoethanamine], in the test with TrxR, the “Activity of TrxR” value is listed as 118.2%. Also, in test [1], the “Cell survival rate (%)” value turned out to be 105 ± 7% and the “Cell survival rate after addition … (%)” value worked out at 85 ± 3%.

Regarding `CCN(CC)C(=S)[S-].[Na+]` [DEDT, Sodium diethyldithiocarbamate], in the test on TrxR, the “Activity of TrxR” value is listed as 88.6%. Further, in test [1], the “Cell survival rate (%)” value turned out to be 78 ± 10% and the “Cell survival rate after addition … (%)” value turned out to be 0.9 ± 1.6%.

In the case of `CC(=O)N[C@@H](CS)C(=O)O` [N-acetylcysteine (NAC), N-acetylcysteine], in test [1], the “Cell survival rate (%)” value came out at 100 ± 6% and the “Cell survival rate after addition … (%)” value is 77 ± 17%.

Regarding `N[C@@H](CCC(=O)N[C@@H](CS)C(=O)NCC(=O)O)C(=O)O` [Glutathione (GSH), Glutathione], in test [1], the “Cell survival rate (%)” value turned out to be 116 ± 6% and the “Cell survival rate after addition … (%)” value is on record as 81 ± 7%.

With `O[C@H](CS)[C@H](O)CS` (racemic) [Dithiothreitol (DTT), Dithiothreitol], in test [1], the “Cell survival rate (%)” value came out at 102 ± 4% and the “Cell survival rate after addition … (%)” value was 88 ± 6%.
